Data reported in patent publication US7973036B2, “2-methyl-5-imino-benzo[D][1 ,3]oxazin[5-B]pyrazole compound, preparation and use thereof” (Qingdao Huanghai Pharmaceutical Co., Ltd, priority 2008, dated 2011).

Columns and labels:
[1] = test system: cerebral ischemia reperfusion model of middle cerebral artery occlusion (MCAO); assay: Cerebral ischemia reperfusion model of middle cerebral artery occlusion (MCAO), suture method; format: in vivo, SD rats; details: for Variation value of water content in brain (%) / brain tissue MDA content / brain tissue SOD activity / Scores of neurological defect symptoms / Cerebral infarction area (%) / Cerebral infarction area (%) (table title: brain injury): X ± SD; for Cerebral infarction area (%): Table 5; for Cerebral infarction area (%) (table title: brain injury): Table 6, brain injury
Description: Cerebral ischemia reperfusion model of middle cerebral artery occlusion (MCAO) was established in SD rats using the suture method of internal carotid artery. Test rats were administrated once 0.5 hours after ischemia reperfusion, then once every 2 hours, for totally three times. Neurological defect symptoms were observed 48 hours after cerebral ischemia.

[2] = Anti-DPPH free radical test (spectrophotometry at 517 nm); format: biochemical
Source text: Anti-DPPH Free Radical Test
2,2-diphenyl-1-picrylhydrazyl (DPPH) free radical spectrophotometry is a simple method for screening antioxidants, the principle of which is using the characteristic absorption peak of DPPH solution at 517 nm. When free radical scavengers existed, single electron pairing between free radical scavenger and DPPH allowed the absorption of DPPH disappeared, and its decoloring degree and accepted electron number present as quantitative relation, and the antioxidant activity of samples can be evaluated through the amount of cleared DPPH, so the spectrophotometry can be used for quantitative analysis.
DPPH was accurately weighed and placed in a volumetric flask, and diluted to 100 ml with 95% ethanol. The absorbance (A) of DPPH was measured at 517 nm.
DPPH standard curve was shown in FIG. 1, the linear equation of which was as follows: y=0.219x−0.0285; r=0.9994.
DPPH was accurately weighed and placed in a 100 ml volumetric flask, and diluted to 100 ml with 95% ethanol to produce the DPPH solution.
Preparation of Test Drug Solution: the Test Drug was Accurately Weighed and Placed in a 100 ml volumetric flask, dissolved with 20 ml of 95% ethanol, adjusted to pH 7.5 and diluted to 100 ml with 95% ethanol.
5.0 ml of DPPH solution and 2.0 ml test drug solution were taken and placed in a 10 ml volumetric flask, fully shaken at room temperature for a certain time followed by determination of absorption value (A) at 517 nm.
Formula for calculating DPPH free radical scavenging ability of test drug, E (mgDPPH/mg):
Formula for calculating DPPH free radical scavenging ability of test drug, V (mmolDPPH/mmol): […]

[3] = TR high dose group (6.0 mg/kg), P<0.001
[4] = TR 1.5 mg/kg, three administrations, n=7
[5] = TR 3.0 mg/kg, three administrations, n=8
[6] = TR 6.0 mg/kg, three administrations, n=8

In the case of Cc1cc2oc(=N)c3ccccc3n2n1 [TR, 2-methyl-5-imino-benzo[d][1,3]oxazin[5-b]pyrazole], the “Variation value of water content in brain (%)” value (from here on “Variation value … (%)”) ([1]; TR 1.5 mg/kg, n=7) is reported as 2.1 ± 1.08 %, the “brain tissue MDA content” value ([1]; TR 1.5 mg/kg, n=7) is reported as 6.6 ± 1.30 nmol/mgprot and the “brain tissue SOD activity” value ([1]; TR 1.5 mg/kg, n=7) is reported as 107.1 ± 15.5 U/mgprot. The “Variation value … (%)” value ([1]; TR 3.0 mg/kg, n=8) was 2.0 ± 1.01 %, the “brain tissue MDA content” value ([1]; TR 3.0 mg/kg, n=8) was 6.5 ± 0.81 nmol/mgprot and the “brain tissue SOD activity” value ([1]; TR 3.0 mg/kg, n=8) was 121.6 ± 16.8 U/mgprot. For the same molecule, the “Variation value … (%)” value ([1]; TR 6.0 mg/kg, n=9) was 1.2 ± 0.55 %, the “brain tissue MDA content” value ([1]; TR 6.0 mg/kg, n=9) was 5.0 ± 1.10 nmol/mgprot and the “brain tissue SOD activity” value ([1]; TR 6.0 mg/kg, n=9) was 132.7 ± 21.0 U/mgprot. The “MDA content compared with the model group” value [1, 3] was “significantly decreased”, the “brain injury compared with the model group” value [1, 3] was “significantly reduced” and the “cerebral infarction area compared with the model group” value [1, 3] was “significantly reduced”. The “water content in brain compared with the model group” value [1, 3] was “significantly reduced”, the “SOD activity compared with the model group” value ([1]; TR high dose group (6.0 mg/kg), P=0.007) was “significantly increased” and the “cerebral infarction area compared with the model group” value ([1]; TR low dose group (1.5 mg/kg), P=0.044) was “significantly reduced”. For the same molecule, the “water content in brain compared with the model group” value ([1]; TR low dose group (1.5 mg/kg), P=0.086) was “No obvious difference”, the “MDA content compared with the model group” value ([1]; TR low dose group (1.5 mg/kg), P=0.211) was “No obvious difference” and the “SOD activity compared with the model group” value ([1]; TR low dose group (1.5 mg/kg), P=0.826) was “No obvious difference”. The “cerebral infarction area compared with the model group” value ([1]; TR medium dose group (3.0 mg/kg), P<0.001) was “significantly reduced”, the “brain injury compared with the model group” value ([1]; TR medium dose group (3.0 mg/kg), P=0.001) was “significantly reduced” and the “water content in brain compared with the model group” value ([1]; TR medium dose group (3.0 mg/kg), P=0.039) was “significantly reduced”. The “MDA content compared with the model group” value ([1]; TR medium dose group (3.0 mg/kg), P=0.141) was “No obvious difference”, the “SOD activity compared with the model group” value ([1]; TR medium dose group (3.0 mg/kg), P=0.157) was “No obvious difference” and the “Scores of neurological defect symptoms” value ([1]; Table 4 series, TR 1.5 mg/kg, three administrations, 48 hours after cerebral ischemia, n=7) was 1.6 ± 0.75. For the same molecule, the “Scores of neurological defect symptoms” value ([1]; Table 4 series, TR 3.0 mg/kg, three administrations, 48 hours after cerebral ischemia, n=8) was 1.1 ± 0.44, the “Scores of neurological defect symptoms” value ([1]; Table 4 series, TR 6.0 mg/kg, three administrations, 48 hours after cerebral ischemia, n=8) was 1.0 ± 0.46 and the “neurological defect symptoms compared with the model group” value ([1]; Table 4 series, TR high dose group (6.0 mg/kg), P<0.001) was “significantly reduced”. The “neurological defect symptoms compared with the model group” value ([1]; Table 4 series, TR low dose group (1.5 mg/kg), P=0.001) was “significantly reduced”, the “neurological defect symptoms compared with the model group” value ([1]; Table 4 series, TR medium dose group (3.0 mg/kg), P<0.001) was “significantly reduced” and the “Cerebral infarction area (%)” value [1, 4] was 26.5 ± 13.24 %. The “Cerebral infarction area (%)” value [1, 5] was 17.4 ± 10.05 %, the “Cerebral infarction area (%)” value [1, 6] was 6.7 ± 6.30^#& % and the “Cerebral infarction area (%) (table title: brain injury)” value [1, 4] was 33.6 ± 16.08 %. The “Cerebral infarction area (%) (table title: brain injury)” value [1, 5] was 22.7 ± 12.10 %, the “Cerebral infarction area (%) (table title: brain injury)” value [1, 6] was 8.1 ± 5.68^#& % and the “Scores of neurological defect symptoms” value ([1]; Table 7 series, TR 1.5 mg/kg, n=7) was 1.9 ± 0.84. The “Scores of neurological defect symptoms” value ([1]; Table 7 series, TR 3.0 mg/kg, n=8) was 1.8 ± 0.70, the “Scores of neurological defect symptoms” value ([1]; Table 7 series, TR 6.0 mg/kg, n=9) was 1.0 ± 0.58 and the “neurological defect symptoms compared with the model group” value ([1]; Table 7 series, TR high dose group (6.0 mg/kg), P<0.001) was “significantly relieved”. The “neurological defect symptoms compared with the model group” value ([1]; Table 7 series, TR low dose group (1.5 mg/kg), P=0.001) was “significantly relieved”, the “neurological defect symptoms compared with the model group” value ([1]; Table 7 series, TR medium dose group (3.0 mg/kg), P<0.001) was “significantly relieved” and the onset dose ([1]; improvement of neurological defect symptoms, infarction area, brain injury, brain edema, lipid peroxidation in cerebral ischemia-reperfusion animals) was 3 mg/kg. For the same molecule, the “DPPH free radical scavenging ability with the reaction time” value ([2]; 30-150 min) was “gradually increased”, the “Hydrolysis in the reaction liquid with the reaction time” value ([2]; 95% ethanol, pH 7.5, room temperature, 30-150 min) was “gradually hydrolyzed into Compound 3” and the “DPPH free radical scavenging ability E, one value per sample (mean of the five concentrations)” value ([2]; 30 min) was 0.419 mgDPPH/mg. For the same molecule, the “DPPH free radical scavenging ability V” value ([2]; 30 min) was 0.212 mmolDPPH/mmol, the “DPPH free radical scavenging ability E” value ([2]; 30 min, test drug C 0.152 (Edaravone), 0.153 (Compound 1, 2), 0.159 (Compound 3) mg/100 ml) was 0.409 mgDPPH/mg and the “DPPH free radical scavenging ability E” value ([2]; 30 min, test drug C 0.304 (Edaravone), 0.305 (Compound 1, 2), 0.318 (Compound 3) mg/100 ml) was 0.368 mgDPPH/mg. For the same molecule, the “DPPH free radical scavenging ability E” value ([2]; 30 min, test drug C 0.608 (Edaravone), 0.610 (Compound 1, 2), 0.635 (Compound 3) mg/100 ml) was 0.310 mgDPPH/mg, the “DPPH free radical scavenging ability E” value ([2]; 30 min, test drug C 1.215 (Edaravone), 1.220 (Compound 1, 2), 1.270 (Compound 3) mg/100 ml) was 0.561 mgDPPH/mg and the “DPPH free radical scavenging ability E” value ([2]; 30 min, test drug C 2.430 (Edaravone), 2.440 (Compound 1, 2), 2.540 (Compound 3) mg/100 ml) was 0.445 mgDPPH/mg.
